The target in one data set is T1, BRD4(1) (Homo sapiens, UniProt O60885).
T1 construct: BRD4(1) (amino acids 44-168); made in house; host or cells: E. coli
Description: Binding assay BRD4/acetylated peptide H4 (TR-FRET/HTRF protein-protein interaction assay). The settings on record: inhibition of interaction BRD4(1) / acetylated histone H4 peptide, TR-FRET. From the text:
Binding Assay BRD4/Acetylated Peptide H4 (“PRQ”)
To assess the BRD4 binding strength of the substances described in this application, their capacity for dose-dependent inhibition of the interaction between BRD4 and acetylated histone H4 was quantified.
For this purpose, a time-resolved fluorescence resonance energy transfer (TR-FRET) assay was used, which measures the binding between N-terminally His6-tagged BRD4(1) (amino acids 44-168) and a synthetic acetylated histone H4 (Ac-H4) peptide with the sequence GRGK(Ac)GGK(Ac)GLGK(Ac)GGAK(Ac)RHGSGSK-biotin. The recombinant BRD4 protein (produced in-house) was expressed in E. coli and was purified by (Ni-NTA) affinity chromatography and (Sephadex G-75) size-exclusion chromatography. The Ac-H4 peptide can be purchased for example from Biosyntan (Berlin, Germany).
In the assay, typically 11 different concentrations of each substance (0.1 nM, 0.33 nM, 1.1 nM, 3.8 nM, 13 nM, 44 nM, 0.15 μM, 0.51 μM, 1.7 μM, 5.9 μM and 20 μM) were measured as duplicates on the same microtitre plate. For this, 100-fold concentrated solutions in DMSO were prepared by serial dilutions (1:3.4) of a 2 mM stock solution in a clear, 384-well microtitre plate (Greiner Bio-One, Frickenhausen, Germany). From this, 50 nl was transferred to a black assay plate (Greiner Bio-One, Frickenhausen, Germany). The assay was started by supplying 2 μl of a 2.5-fold concentrated BRD4 solution (usually 10 to 50 nM final concentration in the 5 μl of the reaction volume) in aqueous assay buffer [50 mM HEPES pH 7.5, 50 mM sodium chloride (NaCl), 0.25 mM CHAPS and 0.05% serum albumin (BSA)] to the substances in the assay plate. This was followed by a 10-minute incubation step at 22° C. for the pre-equilibration of putative complexes between BRD4 and the substances.
The mixture was then incubated in the dark for one hour at 22° C. and then overnight at 4° C. The formation of BRD4/Ac-H4 complexes was determined by measuring the resonance energy transfer from the streptavidin-Eu-cryptate to the anti-6His-XL665 antibody that is present in the reaction. For this, the fluorescence emissions at 620 nm and 665 nm were measured after excitation at 330-350 nm in a TR-FRET measuring instrument, e.g. a Rubystar or Pherastar (both from BMG Lab Technologies, Offenburg, Germany) or a Viewlux (Perkin-Elmer). The ratio of the emissions at 665 nm and at […] was taken as an indicator of the amount of BRD4/Ac-H4 complexes formed.
The data obtained (ratio) were normalized, wherein 0% inhibition corresponded to the mean value from the measured values of a set of controls (usually 32 data points), in which all reagents were contained. 50 nl DMSO (100%) was used instead of test substances. Inhibition of 100% corresponded to the mean value from the measured values of a set of controls (usually 32 data points), in which all reagents except BRD4 were contained. The IC50 value was determined by regression analysis based on a 4-parameter equation (minimum, maximum, IC50, Hill; Y=Max+(Min−Max)/(1+(X/IC50)^Hill)) using Bayer's own analysis software.
Background: TR-FRET usually uses a lanthanide donor and a delayed reading to cut background.

In another data set the test system is LAPC-4 cells. The data set can be described thus: Cellular proliferation assay (alamarBlue) LAPC-4. It is filed as cell-based. The settings on record: Homo sapiens, LAPC4, 168 hours, read-out: Prostate LAPC-4 IC50. The procedure:
(§1) In accordance with the invention, the ability of the substances to inhibit the proliferation of various cell lines was determined. Cell viability was determined by means of the alamarBlue® reagent (Invitrogen). […] After incubation overnight at 37° C., the fluorescence values were determined (CI values). […] Then the fluorescence values were determined (CO values).
(§2) The substances were investigated in the cell lines in Table 1, which for example represent the stated indications: […]
In general terms: The colour change of resazurin is a common sign of viable cells or microbes.

The subject of the next data set is MCF-7 cells. Description: Cellular proliferation assay (alamarBlue) MCF-7. It is filed as cell-based. The settings on record: Homo sapiens, MCF7, 96 hours, read-out: Breast MCF-7 IC50. The procedure: as §1, §2
The next data set concerns HeLa-MaTu cells. The data set can be described thus: Cellular proliferation assay (alamarBlue) HeLa-MaTu. The format is cell-based. Conditions: 96 hours, read-out: Cervix HeLa-MaTu IC50. The procedure: as §1, §2
Data set [1] is described as follows: B16F10 melanoma tumour model. The settings on record: C57BL/6, mouse, in vivo, po. The procedure: (§3) C57BL/6 mice were inoculated on day 0 with 0.5×10^6 cells in 0.1 ml medium, subcutaneously, in the right flank. […] The substances were administered orally for 10 days (day 2 to day 11). […] Practical example 2 was applied at a dose of 160 or 120 mg/kg.
For the next data set, the system named is B16F10 melanoma. Description: B16F10 melanoma tumour model. The method, then: as §3

SMILES strings stand for the structures.

With `Cc1sc2c(c1C)C(c1ccc(Cl)cc1)=N[C@@H](CC(=O)N1C3CCC1CC(=O)C3)c1nnc(C)n1-2` [Example 1, 8-{2-[(S)-4-(4-Chlorophenyl)-2,3,9-trimethyl-6H-thieno[3,2-f][1,2,4]triazolo[4,3-a][1,4]diazepin-6-yl]acetyl}-8-azabicyclo[3.2.1]octan-3-one], the IC50 – broadly, the concentration needed to halve the response being measured – came to 28 nM on BRD4(1), 54 nM in the data set with LAPC-4 cells, 146 nM in the data set with MCF-7 cells and 251 nM in the data set on HeLa-MaTu cells.

In the case of `Cc1sc2c(c1C)C(c1ccc(Cl)cc1)=N[C@@H](CC(=O)N1CC3(COC3)C1)c1nnc(C)n1-2` [Example 2, 2-[(S)-4-(4-Chlorophenyl)-2,3,9-trimethyl-6H-thieno[3,2-f][1,2,4]triazolo[4,3-a][1,4]diazepin-6-yl]-1-(2-oxa-6-azaspiro[3.3]hept-6-yl)ethan-1-one], the IC50 on BRD4(1) was 27 nM; with LAPC-4 cells it was 43 nM; with MCF-7 cells, 116 nM; in the data set with HeLa-MaTu cells it was 202 nM. In data set [1], this molecule displayed an MTD at 10 days of 120 mg/kg. For the same molecule, the T/C value in the data set on B16F10 melanoma (120 mg/kg (MTD), oral, day 2 to day 11) worked out at 27%. The weight loss is on record as 2% in the data set on B16F10 melanoma (120 mg/kg dose, oral, day 2 to day 11) and 5% in the data set on B16F10 melanoma (160 mg/kg dose, oral, day 2 to day 11). Also, the “mice killed because of weight loss above 20%” value in the data set on B16F10 melanoma (group treated with 70 mg/kg, day 10) was “one mouse”.

(Values after patent publication US20140213575A1, “6H-Thieno[3,2-f][1,2,4]triazolo[4,3-a][1,4]diazepines” (BAYER INTELLECTUAL PROPERTY GMBH, priority 2011, published 2014).)
